Results: patent US20180153952A1, “COMPOSITIONS AND METHODS FOR TREATING POST OPERATIVE COGNITIVE DYSFUNCTION AND NEUROIN[…] ANNEXIN A1 (ANXA1) PEPTIDES” (Duke University, priority 2016, published 2018)
“Also recorded” adds a separate entry of the source.

Tests used:
[1] = system: cerebral microglia activation; assay: Microglia activation after orthopedic surgery (F4/80 immunostaining, stereological analysis); type: in vivo; conditions: mice after orthopedic surgery, ANXA1sp 1 mg/kg 1 hr before surgery, 24 hr post-surgery, F4/80 positive cells, vs untreated animals
Protocol: Male C57BL/6 mice (12 weeks) were subjected to orthopedic surgery and treated with ANXA1sp (1 mg/kg) 1 hr before surgery. At 24 hr of post-surgery, brain levels of microglia activation was determined by immunostaining with a biomarker F4/80. Stereological analysis of F4/80 positive cells was shown in the bar graph. N=5 (Naïve), 10 (Surgery), and 4 (ANXA1sp). Data are presented as mean+SD. **P<0.01 vs. Naïve; #P<0.05 vs. Surgery. One-way ANOVA with Multiple Comparisons. (FIG. 13).

[2] = system: SIRT3; assay: Hippocampal mitochondrial SIRT3 expression after orthopedic surgery; type: in vivo; conditions: mice after orthopedic surgery, time-dependent
[3] = system: ANXA1; assay: Hippocampal/brain ANXA1 levels after orthopedic surgery; type: in vivo, mice
From the text: Surgery reduced levels of endogenous ANXA1 in the brain at 24 hr (FIG. 25A, FIG. 25B for quantification). […] N=3-4; **P<0.01, ***P<0.001. One-way ANOVA with Multiple Comparisons.

[4] = system: MPO; assay: Plasma/systemic MPO levels after orthopedic surgery; type: in vivo, mice
From the text: (§1) Systemic cytokines, including IL-6, are found elevated in patients developing delirium and POCD and may serve as potential biomarkers. […] N=4-5 (adult), N=1-5 (aged); **P<0.01. Two-way ANOVA with Multiple Comparisons.

[5] = system: NLRP3 inflammasome; assay: NLRP3 expression/inflammasome activation in hippocampus after orthopedic surgery (Western blot); type: in vivo, mice; conditions: for NLRP3 activation: ANXA1sp 1 mg/kg 30 min before surgery
Protocol: (§2) Representative Western Blot images in adult (12 weeks-old) and aged (20 months-old) C57BL/6 mice for NLRP3 (FIG. 18A), Caspase-1 (FIG. 18C), and IL1β (FIG. 18E) (three key components of the inflammasome complex) and quantification. […] Data are presented as mean±SD. […] One-way ANOVA with Multiple Comparisons.
Male C57BL/6 mice received ANXA1sp (1 mg/kg) 30 min before surgery. […] Data are presented as mean±SD. […] Two-way ANOVA with Multiple Comparisons.

[6] = system: Caspase-1; assay: Caspase-1 activation in hippocampus after orthopedic surgery (Western blot); type: in vivo, mice
Protocol: as §2
(§3) Male C57BL/6 mice received ANXA1sp (1 mg/kg) 30 min before surgery. Representative blots of Caspase-1 activation and IL1β secretion. […] Data are presented as mean±SD. N=4-5; *P<0.05, **P<0.01, ***P<0.001. Two-way ANOVA with Multiple Comparisons.

[7] = system: IL-1β; assay: IL-1β secretion in hippocampus after orthopedic surgery (Western blot); type: in vivo, mice
Protocol: as §2, §3

[8] = system: memory function; assay: "What-when-where" task of object recognition memory after orthopedic surgery; type: in vivo, mice
From the text: After orthopedic surgery mice have reduced preferences for the replacement of objects (what), and for the original location of the displaced object (where); but they show a […] preference the order of presentation (when). […] Data are presented as mean±SD. N=10. *P<0.05 and **P<0.01 vs. surgery+vehicle using MANOVA. (FIG. 17).

[9] = system: OXPHOS mitochondrial electron transport chain complexes; assay: Hippocampal total OXPHOS (Western blot) after orthopedic surgery; type: in vivo; conditions: mice (13 weeks) after orthopedic surgery
Protocol: (§4) Male C57BL/6 mice (13 weeks) were subjected to orthopedic surgery. Naïve animals (no surgery at 0 hour) were used as baseline-control. At 3, 6, and 24 hours of post-surgery, the total OXPHOS in hippocampus was determined by Western blot (FIG. 23A) and (FIG. 23B). Time-dependent increased hippocampal ATP production were determined by ELISA (FIG. 23C). […] Data are presented as mean±SD. N=4; **P<0.01, ***P<0.001. One-way ANOVA with Multiple Comparisons.

[10] = system: hippocampal ATP production; assay: Hippocampal ATP production (ELISA) after orthopedic surgery; type: in vivo; conditions: mice (13 weeks) after orthopedic surgery
Protocol: as §4

[11] = system: citrate synthetase (CS); assay: Hippocampus citrate synthetase (CS, Western blot) after orthopedic surgery; type: in vivo; conditions: mice (13 weeks) after orthopedic surgery
Protocol: Male C57BL/6 mice (13 weeks) were subjected to orthopedic surgery while naïve animals were as baseline-control. At 3, 6, and 24 hours of post-surgery, the hippocampus CS was determined by Western blot (FIG. 24A) and (FIG. 24B). […] Data are presented as mean±SD. N=4; **P<0.01, ***P<0.001, ****P<0.0001. One-way ANOVA with Multiple Comparisons.

[12] = system: IL-6; assay: Systemic IL-6 after orthopedic surgery; type: in vivo; conditions: mice after orthopedic surgery
From the text: as §1

[13] = brain (hippocampus) of mice after orthopedic surgery

With Ac-Gln-Ala-Trp [ANXA1sp] the cerebral microglia activation [1] was “significantly attenuated”, the “hippocampal mitochondrial SIRT3 expression/activation” value [2] was “significantly increases/activates; also recorded: significantly higher expression” and the “levels of ANXA-1 in the brain” value ([3]; 24 hr after surgery, 1 mg/kg ANXA1sp) was “significantly increase”. The “hippocampal ANXA1 levels” value ([3]; mice after orthopedic surgery) was “significantly increased”, the “plasma levels of meloperoxidase (MPO)” value ([4]; mice after orthopedic surgery, time-dependent) was “reduced; also recorded: significantly decreased” and the “systemic levels of MPO” value ([4]; mice, 24 hr after orthopedic surgery, listed as ANXA-1sp) was “reduced”. The NLRP3 activation ([5]; adult and aged mice, 24 hr after surgery) was “significantly reduced”, the NLRP3 activation ([5]; aged mice, 6 hr after surgery) was “significantly reduced” and the “NLRP3 expression or NLRP3 inflammasome activation” value [5, 13] was “inhibits; also recorded: significant inhibition; also recorded: reduces”. For the same substance, the “levels of Caspase-1” value ([6]; adult and aged mice after surgery, ANXA1sp 1 mg/kg 30 min before surgery) was “significantly reduced”, the “activation of caspase-1” value [6, 13] was “significantly inhibited” and the “secreted IL1β” value ([7]; adult mice after surgery, ANXA1sp 1 mg/kg 30 min before surgery) was “no significance”. The “activation of IL-1β” value [7, 13] was “significantly inhibited”, the “memory deficits (what-when-where object recognition preference scores)” value ([8]; mice after orthopedic surgery, vs surgery+vehicle) was “significantly improves” and the “exploration of the displaced/replaced object” value ([8]; surgery+ANXA1sp mice, vs original anchor object and two most recently seen objects) was “greater exploration”. For the same substance, the “hippocampal total OXPHOS, particularly complex IV” value [9] was “significantly regulated”, the “hippocampal ATP production” value [10] was “attenuated” and the “numbers of CS (citrate synthetase, biomarker of numbers of mitochondria)” value [11] was “significantly increased”. The “systemic IL-6” value [12] was “significantly reduced” and the “systemic IL-6” value ([12]; listed as ANXA-1sp) was “reduced”.
